Assay results published in US20080207705A1, “Heteroaryl-Imidazole Derivatives as Cannabinoid CB1 Receptor Antagonists” (Green Cross Corporation, priority 2007, published 2008).

Each compound was assayed against T1, rat CB-1 receptor (Rattus norvegicus, UniProt P20272) (assay: rat CB-1 receptor binding protocol with [3H]CP-55940). Conditions: not given.
T1 construct: The tissue obtained from the brain of SD rats was homogenized; from tissue; host or cells: brain of SD rats (membrane pellet of homogenate)
T1 sequence (P20272 whole entry): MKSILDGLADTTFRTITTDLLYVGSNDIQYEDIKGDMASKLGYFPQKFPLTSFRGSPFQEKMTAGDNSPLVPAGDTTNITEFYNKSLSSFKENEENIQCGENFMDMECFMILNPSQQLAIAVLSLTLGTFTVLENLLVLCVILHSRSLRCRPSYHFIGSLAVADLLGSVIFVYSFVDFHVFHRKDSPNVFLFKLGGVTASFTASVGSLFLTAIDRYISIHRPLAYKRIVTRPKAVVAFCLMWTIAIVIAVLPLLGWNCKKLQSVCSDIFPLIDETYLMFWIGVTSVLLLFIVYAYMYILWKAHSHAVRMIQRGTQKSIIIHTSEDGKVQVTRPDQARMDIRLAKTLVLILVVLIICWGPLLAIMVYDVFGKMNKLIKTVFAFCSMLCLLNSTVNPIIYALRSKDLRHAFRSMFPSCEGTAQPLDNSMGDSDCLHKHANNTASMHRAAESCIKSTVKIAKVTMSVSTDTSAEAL

SMILES | IC50 [µM]
Cc1c(-c2nnc(C3CCC3)o2)nc(-c2ccc(Cl)cc2Cl)n1-c1ccc(Br)cc1 [Example 22, 2-(1-(4-Bromophenyl)-2-(2,4-dichlorophenyl)-5-methyl-1H-imidazol-4-yl)-5-cyclobutyl-1,3,4-oxadiazole] | 0.0293
Cc1c(-c2nnc(C3CCCCC3)o2)nc(-c2ccc(Cl)cc2Cl)n1-c1ccc(Br)cc1 [Example 19, 2-(1-(4-Bromophenyl)-2-(2,4-dichlorophenyl)-5-methyl-1H-imidazol-4-yl)-5-cyclohexyl-1,3,4-oxadiazole] | 0.07

Same assay, conditions: [3H]CP-55940, brain tissue of SD rats, 30 °C for 60 min; read-out: IC50

SMILES | IC50 [µM]
Cc1c(-c2nnc(C3(C(F)(F)F)CC3)o2)nc(-c2ccc(Cl)cc2Cl)n1-c1ccc(Br)cc1 [Example 46, 2-(1-(4-Bromophenyl)-2-(2,4-dichlorophenyl)-5-methyl-1H-imidazol-4-yl)-5-(1-(trifluoromethyl)cyclopropyl)-1,3,4-oxadiazole] | 0.0156
CC(C)(C)c1nnc(-c2nc(-c3ccc(Cl)cc3Cl)n(-c3ccc(Cl)cc3)c2C2CC2)o1 [Example 24, 2-tert-Butyl-5-(1-(4-chlorophenyl)-5-cyclopropyl-2-(2,4-dichlorophenyl)-1H-imidazol-4-yl)-1,3,4-oxadiazole] | 0.0799
CCCc1c(-c2nnc(C3(c4ccc(Cl)cc4)CCC3)s2)nc(-c2ccc(Cl)cc2Cl)n1-c1ccc(Br)cc1 [Example 124, 2-(1-(4-Bromophenyl)-2-(2,4-dichlorophenyl)-5-propyl-1H-imidazol-4-yl)-5-(1-(4-chlorophenyl)cyclobutyl)-1,3,4-thiadiazole] | 0.00179
CCC(C)c1nnc(-c2nc(-c3ccc(Cl)cc3Cl)n(-c3ccc(Cl)cc3)c2C)s1 (stereo not drawn) [Example 97, 2-sec-Butyl-5-(1-(4-chlorophenyl)-2-(2,4-dichlorophenyl)-5-methyl-1H-imidazol-4-yl)-1,3,4-thiadiazole] | 0.0281
Cc1c(-c2nnc(C3CCC3)o2)nc(-c2ccc(Cl)cc2Cl)n1-c1ccc(Cl)cc1 [Example 4, 2-(1-(4-Chlorophenyl)-2-(2,4-dichlorophenyl)-5-methyl-1H-imidazol-4-yl)-5-cyclobutyl-1,3,4-oxadiazole] | 0.0387
Cc1c(-c2ncc(C3CCCCC3)o2)nc(-c2ccc(Cl)cc2Cl)n1-c1ccc(Cl)cc1 [Example 180, 2-(1-(4-Chlorophenyl)-2-(2,4-dichlorophenyl)-5-methyl-1H-imidazol-4-yl)-5-cyclohexyloxazole] | 0.0786
Cc1c(-c2ncc(C(C)C)s2)nc(-c2ccc(Cl)cc2Cl)n1-c1ccc(Cl)cc1 [Example 196, 2-(1-(4-Chlorophenyl)-2-(2,4-dichlorophenyl)-5-methyl-1H-imidazol-4-yl)-5-isopropylthiazole] | 0.016
CCc1c(-c2nnc(C3(c4ccc(Cl)cc4)CC3)s2)nc(-c2ccccc2Cl)n1-c1ccc(Br)cc1 [Example 148, 2-(1-(4-Bromophenyl)-2-(2-chlorophenyl)-5-ethyl-1H-imidazol-4-yl)-5-(1-(4-chlorophenyl)cyclopropyl)-1,3,4-thiadiazole] | 0.00493
CCCc1c(-c2nnc(C3CCCCC3)o2)nc(-c2ccc(Cl)cc2Cl)n1-c1ccc(Cl)cc1 [Example 39, 2-(1-(4-Chlorophenyl)-2-(2,4-dichlorophenyl)-5-propyl-1H-imidazol-4-yl)-5-cyclohexyl-1,3,4-oxadiazole] | 0.0869
CCCc1c(-c2nnc(C3(c4ccc(Cl)cc4)CC3)s2)nc(-c2ccc(Cl)cc2Cl)n1-c1ccc(Cl)cc1 [Example 127, 2-(1-(4-Chlorophenyl)-2-(2,4-dichlorophenyl)-5-propyl-1H-imidazol-4-yl)-5-(1-(4-chlorophenyl)cyclopropyl)-1,3,4-thiadiazole] | 0.00343
Cc1c(-c2nnc(C3CCCC3)s2)nc(-c2ccc(Cl)cc2Cl)n1-c1ccc(Cl)cc1 [Example 92, 2-(1-(4-Chlorophenyl)-2-(2,4-dichlorophenyl)-5-methyl-1H-imidazol-4-yl)-5-cyclopentyl-1,3,4-thiadiazole] | 0.0108
CCc1c(-c2nnc(C(C)(C)C)o2)nc(-c2ccc(Cl)cc2Cl)n1-c1ccc(Br)cc1 [Example 21, 2-(1-(4-Bromophenyl)-2-(2,4-dichlorophenyl)-5-ethyl-1H-imidazol-4-yl)-5-tert-butyl-1,3,4-oxadiazole] | 0.00315
CCc1oc(-c2nc(-c3ccc(Cl)cc3Cl)n(-c3ccc(Cl)cc3)c2C)nc1C [Example 192, 2-(1-(4-Chlorophenyl)-2-(2,4-dichlorophenyl)-5-methyl-1H-imidazol-4-yl)-5-ethyl-4-methyloxazole] | 0.0779
CC(C)(C)c1nnc(-c2nc(-c3ccccc3Cl)n(-c3ccc(Br)cc3)c2Cn2cncn2)o1 [Example 78, 2-(5-((1H-1,2,4-Triazol-1-yl)methyl)-1-(4-bromophenyl)-2-(2-chlorophenyl)-1H-imidazol-4-yl)-5-tert-butyl-1,3,4-oxadiazole] | 0.0103
FC(F)(F)C1(c2nnc(-c3nc(-c4ccccc4Cl)n(-c4ccc(Br)cc4)c3Cn3cncn3)s2)CCC1 [Example 170, 2-(5-((1H-1,2,4-Triazol-1-yl)methyl)-1-(4-bromophenyl)-2-(2-chlorophenyl)-1H-imidazol-4-yl)-5-(1-(trifluoromethyl)cyclobutyl)-1,3,4-thiadiazole] | 0.00175
CCc1c(-c2nnc(C(C)CC)s2)nc(-c2ccc(Cl)cc2Cl)n1-c1ccc(Cl)cc1 (stereo not drawn) [Example 107, 2-sec-Butyl-5-(1-(4-chlorophenyl)-2-(2,4-dichlorophenyl)-5-ethyl-1H-imidazol-4-yl)-1,3,4-thiadiazole] | 0.00846
CCCCC(C)c1nnc(-c2nc(-c3ccc(Cl)cc3Cl)n(-c3ccc(Cl)cc3)c2C)s1 (stereo not drawn) [Example 95, 2-(1-(4-Chlorophenyl)-2-(2,4-dichlorophenyl)-5-methyl-1H-imidazol-4-yl)-5-(hexan-2-yl)-1,3,4-thiadiazole] | 0.015
CCc1c(-c2nnc(C3(c4ccc(Cl)cc4)CC3)s2)nc(-c2ccc(Cl)cc2Cl)n1-c1ccc(Br)cc1 [Example 130, 2-(1-(4-Bromophenyl)-2-(2,4-dichlorophenyl)-5-ethyl-1H-imidazol-4-yl)-5-(1-(4-chlorophenyl)cyclopropyl)-1,3,4-thiadiazole] | 0.00453
Cc1c(-c2nnc(C(C)(C)C)s2)nc(-c2ccc(Cl)cc2Cl)n1-c1ccc(Cl)cc1 [Example 90, 2-tert-Butyl-5-(1-(4-chlorophenyl)-2-(2,4-dichlorophenyl)-5-methyl-1H-imidazol-4-yl)-1,3,4-thiadiazole] | 0.0202
CCCc1c(-c2nnc(C3(c4ccc(Cl)cc4)CC3)o2)nc(-c2ccc(Cl)cc2Cl)n1-c1ccc(Cl)cc1 [Example 37, 2-(1-(4-Chlorophenyl)-2-(2,4-dichlorophenyl)-5-propyl-1H-imidazol-4-yl)-5-(1-(4-chlorophenyl)cyclopropyl)-1,3,4-oxadiazole] | 0.0151
Cc1c(-c2nnc(C3(c4ccc(Cl)cc4)CC3)s2)nc(-c2ccccc2Cl)n1-c1ccc(Br)cc1 [Example 144, 2-(1-(4-Bromophenyl)-2-(2-chlorophenyl)-5-methyl-1H-imidazol-4-yl)-5-(1-(4-chlorophenyl)cyclopropyl)-1,3,4-thiadiazole] | 0.00218
CCc1c(-c2nnc(C3(c4ccc(Cl)cc4)CCCC3)o2)nc(-c2ccc(Cl)cc2Cl)n1-c1ccc(Br)cc1 [Example 45, 2-(1-(4-Bromophenyl)-2-(2,4-dichlorophenyl)-5-ethyl-1H-imidazol-4-yl)-5-(1-(4-chlorophenyl)cyclopentyl)-1,3,4-oxadiazole] | 0.0114
